For one data set, the system named is leukemic cells P 388. Put plainly: Inhibition of the growth of cultured leukemic cells P 388 (two-day culture). It is filed as cell-based. The settings on record: Mus musculus, P388, 48 h. From the text: (1) Activity of inhibiting the growth of cultures leukemic cells P 3FB8
For the next data set, the system named is Leukemia L 1210. Kind of data set: Anti-tumor effect for mice bearing Leukemia L 1210 (survival). The data set is classed as in vivo, CDF1 mice. As to conditions: injected peritoneally for 10 days; for Percent survival (%): L 1210 1 x 10^5 cells/mouse i.p., 30 days observation, saline control = 100; for Toxicity remark in the percent survival cell: CDF1 mice bearing L 1210. As for the experimental part: (2) Anti-tumor effect for mice bearing Leukemia L 1210
A group of CDF1 mice were intraperitoneally transplanted with suspensions of leukemic cells L 1210 (1 x 10^5 cells/mouse). Immediately after the transplantation, a.25 mℓ each of the test compounds was injected peritoneally into the mice for 10 days. Observation was made for 30 days, and the percent survival for each test compound was determined, with 100 representing the number of days which the control mice group administered physiological saline survived.

[1] abbreviates: concentration giving 50% inhibition of growth of a two-day culture of P 388 cells vs untreated group, read-out: IC50.

Here are results for eleven molecules from patent EP0167935A2, “Anthracycline derivatives, a process for the production thereof, a pharmaceutical composition containing the same and their use as medicaments” (priority 1984, dated 1986).

Each structure is given as a SMILES string. ≈ marks a conversion by molar mass, not a printed value. Like-named read-outs stand apart in the source and are kept apart here.

For `CCC1(O)CC(OC2CC(N(C)C)C(O)C(C)O2)c2c(O)c3c(c(O)c2C1OC1CC(N(C)C)C(OC2CC4OC5CC(=O)C(C)OC5OC4C(C)O2)C(C)O1)C(=O)c1cccc(O)c1C3=O` (centres unmarked) [DTR-B/7de-dF-CB, ditrisarubicin B/7 de-dF-CB], in the data set with leukemic cells P 388, the IC50 is 21 ng/mL (≈ 22.3 nM).

`CCC1(O)CC(OC2CC(N(C)C)C(OC3CC(O)C(O)C(C)O3)C(C)O2)c2c(O)c3c(c(O)c2C1OC1CC(N(C)C)C(OC2CC4OC5CC(=O)C(C)OC5OC4C(C)O2)C(C)O1)C(=O)c1cccc(O)c1C3=O` (centres unmarked) [DTR-GR/de-Ro] gave an IC50 with leukemic cells P 388 of 20 ng/mL (≈ 18.7 nM).

`CCC1(O)CC(OC2CC(N(C)C)C(OC3CC(O)C(OC4CCC(O)C(C)O4)C(C)O3)C(C)O2)c2c(O)c3c(c(O)c2C1OC1CC(N(C)C)C(OC2CC4OC5CC(=O)C(C)OC5OC4C(C)O2)C(C)O1)C(=O)c1cccc(O)c1C3=O` (centres unmarked) [DTR-GR, ditrisarubicin GR] showed a half-inhibitory concentration (IC50) in the data set with leukemic cells P 388 of 4.2 ng/mL (≈ 3.54 nM).

For `CCC1(O)CC(OC2CC(N(C)C)C(OC3CC4OC5CC(=O)C(C)OC5OC4C(C)O3)C(C)O2)c2c(O)c3c(c(O)c2C1OC1CC(N(C)C)C(O)C(C)O1)C(=O)c1cccc(O)c1C3=O` (centres unmarked) [DTR-B/10de-dF-CB], the IC50 in the data set on leukemic cells P 388 (setting [1]) was determined as 9 ng/mL (≈ 9.56 nM).

In the data set on leukemic cells P 388, `CCC1(O)CC(OC2CC(N(C)C)C(OC3CC4OC5CC(=O)C(C)OC5OC4C(C)O3)C(C)O2)c2c(O)c3c(c(O)c2C1OC1CC(N(C)C)C(OC2CC(O)C(O)C(C)O2)C(C)O1)C(=O)c1cccc(O)c1C3=O` (centres unmarked) [DTR-G/de-Ro] returned a half-inhibitory concentration (IC50) of 12 ng/mL (≈ 11.2 nM).

As for `CCC1(O)CC(OC2CC(N(C)C)C(OC3CC(O)C(OC4CCC(=O)C(C)O4)C(C)O3)C(C)O2)c2c(O)c3c(c(O)c2C1OC1CC(N(C)C)C(OC2CC(O)C(OC4CCC(=O)C(C)O4)C(C)O2)C(C)O1)C(=O)c1cccc(O)c1C3=O` (centres unmarked) [DTR-E, ditrisarubicin E], in the data set with leukemic cells P 388 (setting [1]), the half-maximal inhibitory concentration (IC50) amounted to 7 ng/mL (≈ 5.91 nM). The “Percent survival (%)” value with Leukemia L 1210 (Dose 0.0078 mg/kg/day) was 102%; in the data set on Leukemia L 1210 (Dose 0.0156 mg/kg/day) it was 102%; in the data set with Leukemia L 1210 (Dose 0.0313 mg/kg/day), 119%; with Leukemia L 1210 (Dose 0.0625 mg/kg/day), 163%; in the data set on Leukemia L 1210 (Dose 0.125 mg/kg/day), 156%; with Leukemia L 1210 (Dose 0.25 mg/kg/day), 106%.

In the data set on leukemic cells P 388, `CCC1(O)CC(OC2CC(N(C)C)C(OC3CC4OC5CC(=O)C(C)OC5OC4C(C)O3)C(C)O2)c2c(O)c3c(c(O)c2C1OC1CC(N(C)C)C(OC2CCC(OC4CCC(=O)C(C)O4)C(C)O2)C(C)O1)C(=O)c1cccc(O)c1C3=O` (centres unmarked) [DTR-D, ditrisarubicin D] registered an IC50 of 4 ng/mL (≈ 3.43 nM). The “Percent survival (%)” value in the data set on Leukemia L 1210 (Dose 0.0078 mg/kg/day) was 97%; with Leukemia L 1210 (Dose 0.0156 mg/kg/day), 102%; in the data set on Leukemia L 1210 (Dose 0.0313 mg/kg/day) it was 125%; in the data set with Leukemia L 1210 (Dose 0.0625 mg/kg/day), 142%; in the data set with Leukemia L 1210 (Dose 0.125 mg/kg/day), 114%; in the data set on Leukemia L 1210 (Dose 0.25 mg/kg/day), 131%.

As for `CCC1(O)CC(OC2CC(N(C)C)C(OC3CC4OC5CC(=O)C(C)OC5OC4C(C)O3)C(C)O2)c2cc3c(c(O)c2C1OC1CC(N(C)C)C(OC2CC4OC5CC(=O)C(C)OC5OC4C(C)O2)C(C)O1)C(=O)c1c(O)ccc(O)c1C3=O` (centres unmarked) [Compound 1-HSR, 1-hydroxyserirubicin], the IC50 in the data set with leukemic cells P 388 is 12 ng/mL (≈ 10.2 nM). Further, the “Percent survival (%)” value with Leukemia L 1210 (Dose 0.0313 mg/kg/day) is reported as 108%; in the data set on Leukemia L 1210 (Dose 0.0625 mg/kg/day), 127%; in the data set on Leukemia L 1210 (Dose 0.125 mg/kg/day), 151%; in the data set with Leukemia L 1210 (Dose 0.25 mg/kg/day), 145%; in the data set on Leukemia L 1210 (Dose 0.5 mg/kg/day) it was 139%; in the data set with Leukemia L 1210 (Dose 1 mg/kg/day), 114%. In addition, the “Toxicity remark in the percent survival cell” value in the data set on Leukemia L 1210 (Dose 1 mg/kg/day) is recorded as “Toxin”.

In the data set with leukemic cells P 388, `CCC1(O)CC(OC2CC(N(C)C)C(OC3CC4OC5CC(=O)C(C)OC5OC4C(C)O3)C(C)O2)c2c(O)c3c(c(O)c2C1OC1CC(N(C)C)C(OC2CC(O)C(OC4CCC(O)C(C)O4)C(C)O2)C(C)O1)C(=O)c1cccc(O)c1C3=O` (centres unmarked) [DTR-G, ditrisarubicin G] yielded a 50% inhibitory concentration (IC50) of 4.5 ng/mL (≈ 3.8 nM). The “Percent survival (%)” value is on record as 109% in the data set with Leukemia L 1210 (Dose 0.0078 mg/kg/day); 111% with Leukemia L 1210 (Dose 0.0156 mg/kg/day); 117% in the data set on Leukemia L 1210 (Dose 0.0313 mg/kg/day); 163% in the data set with Leukemia L 1210 (Dose 0.0625 mg/kg/day); 138% in the data set with Leukemia L 1210 (Dose 0.125 mg/kg/day); 125% in the data set with Leukemia L 1210 (Dose 0.25 mg/kg/day). Also, the “Toxicity remark in the percent survival cell” value in the data set on Leukemia L 1210 (Dose 0.25 mg/kg/day) is reported as “Toxin”.

On to `CCC1(O)CC(OC2CC(N(C)C)C(OC3CC4OC5CC(=O)C(C)OC5OC4C(C)O3)C(C)O2)c2c(O)c3c(c(O)c2C1OC1CC(N(C)C)C(OC2CCC(OC4CCC(O)C(C)O4)C(C)O2)C(C)O1)C(=O)c1cccc(O)c1C3=O` (centres unmarked) [DTR-F, ditrisarubicin F], for which the half-maximal inhibitory concentration (IC50) in the data set on leukemic cells P 388 was found to be 3.8 ng/mL (≈ 3.25 nM). In addition, the “Percent survival (%)” value worked out at 101% with Leukemia L 1210 (Dose 0.0078 mg/kg/day); 120% with Leukemia L 1210 (Dose 0.0156 mg/kg/day); 127% in the data set on Leukemia L 1210 (Dose 0.0313 mg/kg/day); 133% in the data set with Leukemia L 1210 (Dose 0.0625 mg/kg/day); 152% with Leukemia L 1210 (Dose 0.125 mg/kg/day); 133% with Leukemia L 1210 (Dose 0.25 mg/kg/day). The “Toxicity remark in the percent survival cell” value in the data set with Leukemia L 1210 (Dose 0.25 mg/kg/day) is “Toxin”.

For `CCC1(O)CC(OC2CC(N(C)C)C(OC3CCC(OC4C=CC(=O)C(C)O4)C(C)O3)C(C)O2)c2c(O)c3c(c(O)c2C1OC1CC(N(C)C)C(OC2CC4OC5CC(=O)C(C)OC5OC4C(C)O2)C(C)O1)C(=O)c1cccc(O)c1C3=O` (centres unmarked) [DTR-CR, ditrisarubicin CR], in the data set with leukemic cells P 388, the IC50 worked out at 4 ng/mL (≈ 3.43 nM).

The IC50 is the concentration at which inhibition is half-maximal.
